This note sets out measurements from article PMC10258243, “Identification and characterization of novel marine oxasqualenoid yucatecone against Naegleria fowleri” (International Journal for Parasitology: Drugs and Drug …, 2023).

The test system of one data set is N. fowleri ATCC® 30215™. The data set is described as follows: alamarBlue colorimetric activity assay, trophozoites. Type of data set: cell-based, Naegleria fowleri. To be noted: for IC50: Naegleria fowleri, read-out: N. fowleri ATCC® 30215™ IC50; for N. fowleri ATCC® 30215™ SI (CC50/IC50): selectivity index. Here is the method: (§1) The activity evaluation of the molecules was carried out in two different N. fowleri strains (ATCC® 30808™ and ATCC® 30215™) from the American Type Culture Collection (LG Promochem, Barcelona, Spain). The cytotoxicity of the compounds was evaluated using a murine macrophages cell line (ATCC® TIB-67). Cells were grown as previously described ([Rizo-Liendo et al., 2020]).
(§2) A colorimetric assay based on the alamarBlue® reagent was performed to evaluate the activity of the compounds in two different N. fowleri strains (ATCC® 30808™ and ATCC® 30215™). The same protocol optimized by Rizo-Liendo et al. was followed in these assays ([Rizo-Liendo et al., 2019]). Briefly, N. fowleri trophozoites (2 × 10^5 cells/mL) were incubated with serial dilutions (in the same culture media) of the compounds in a 96 well microtiter plate. Next, the alamarBlue® reagent was added and the plates were incubated at 37 °C. After 48 h, the fluorescence was read in an EnSpire Multimode Plate Reader (Perkin Elmer, Madrid, Spain) using a wavelength of excitation of 570 nm and a wavelength of emission of 585 nm.
(§3) All experiments were carried out in triplicate and mean values were also calculated.

The next data set has as its system N. fowleri ATCC® 30808™. The description is as above. To be noted: for IC50: Naegleria fowleri, read-out: N. fowleri ATCC® 30808™ IC50; for N. fowleri ATCC® 30808™ SI (CC50/IC50): selectivity index. Type of data set: cell-based, Naegleria fowleri. How it is done: as §1, §2, §3
A short description of data set [1]: alamarBlue cytotoxicity assay. In kind it is cell-based. To be noted: mouse, J774A.1, 24 h, mean ± SD, read-out: Murine macrophages CC50. Here is the method:
as §1
In order to evaluate the cytotoxicity of the compounds a murine macrophages cell line (ATCC® TIB-67) was used. A known concentration of cells (10^5 cells/mL) was incubated with serial dilutions of the molecules. After that, the alamarBlue® reagent was added and the plates were incubated for 24 h at 37 °C and in a 5% of CO2 atmosphere ([Arberas-Jiménez et al., 2020]). The same alamarBlue® based protocol described in the section above was assessed to obtain de cytotoxic concentration 50 (CC50).

Data set [2] deals with Cysts of N. fowleri ATCC® 30808™. Nature of the data set: alamarBlue activity assay against cysts. In kind it is cell-based. The settings on record: Naegleria fowleri, ATCC30808, read-out: IC50 against N. fowleri cysts. How it is done: Cysts of N. fowleri ATCC® 30808™ strain were used in these assays. Cysts were obtained as previously described and performing the protocol optimized by our group ([Arberas-Jiménez et al., 2022]). Mature cysts (2 × 10^5 cells/mL) were incubated with serial dilutions of yucatecone during 24 h at 37 °C. Subsequently, the media was removed and fresh bactocasitone was added with the aim to facilitate the excystation. Finally, the alamarBlue® reagent was added and the plates were incubated for 72 more hours at 37 °C prior to reading the fluorescence and determining the IC50 as described in section 2.4.
Background: The colour change of resazurin is a common sign of viable cells or microbes.

The test system of data set [3] is N. fowleri ATCC® 30808™ trophozoites. The data set is described as follows: Hoechst 33342/propidium iodide double stain for chromatin condensation. In kind it is cell-based, Naegleria fowleri. The settings on record: IC50 and IC90 of compound, 24 h. How it is done: (§4) The aim of these assays was to evaluate the presence of different metabolic events that are shown in programmed cell death like process (PCD-like) undergoing cells. […] After the treatment of the cells with these concentrations of the molecules, a 50% and a 10%, respectively, of the amoebae in the well remain as viable. Finally, the protocol for each kit was performed following manufacturers’ instructions. Moreover, the percentage of stained cells after the incubation of the treated and non-treated cells with each kit and the ratio of fluorescence between the aggregate and monomer forms of the JC-1 was evaluated. For this, the EVOS M5000 Cell Imaging System (Life Technologies, Madrid, Spain) was used and each experiment was performed in triplicate. In each experiment five different images were evaluated with a minimum number of cells of 80.
A double stain detection kit Hoechst 33342/propidium iodide (PI) (Life Technologies, Madrid, Spain) and an EVOS M5000 Cell Imaging System (Life Technologies, Madrid, Spain) were used in this experiment. The assay was performed following manufacturer's instruction.
This kit enables to distinguish between three different group of cells: A light blue fluorescence corresponds to live cells whereas in the treated cells an intense blue fluorescence is shown. Finally, red fluorescence appears in dead cells as the IP binds to their DNA.

Data set [4] shares this test system. The data set is described as follows: SYTOX Green plasmatic membrane permeability. Type of data set: cell-based, Naegleria fowleri. To be noted: IC50 and IC90 of compound, 24 h. Here is the method: as §4
The SYTOX Green kit (Life Technologies, Madrid, Spain) was used for the evaluation of the cellular plasmatic membrane damage. This stain binds to the DNA of those cells who have suffered alterations in the permeability of the plasmatic membrane and emits a high green fluorescence. […] This assay was performed following manufacturer's instruction and modified by [Sifaoui et al. (2018)]. An EVOS M5000 Cell Imaging System (Life Technologies, Madrid, Spain) was used to obtain the images.

The test system is the same in data set [5]. The data set is described as follows: CellROX Deep Red intracellular ROS. To be noted: IC50 and IC90 of compound, 24 h. In kind it is cell-based, Naegleria fowleri. Here is the method:
as §4
The CellROX Deep Red fluorescent assay (Invitrogen, Termo Fisher Scientifc, Madrid, Spain) was used to perform the ROS levels evaluation. After the cell incubation with the yucatecone the stain was added and incubated for half an hour in the dark. Finally, images were obtained with an EVOS M5000 Cell Imaging System (Life Technologies, Madrid, Spain). The presence of ROS is detected by intense red fluorescence.

For data set [6] the test system is unchanged. Nature of the data set: JC-1 mitochondrial membrane potential. In kind it is cell-based, Naegleria fowleri. The settings on record: IC50 and IC90 of compound, 24 h. How it is done:
as §4
The mitochondrial membrane potential decrease was determined using the JC-1 Mitochondrial Membrane Potential Assay Kit (Cayman Chemicals, Vitro SA, Madrid, Spain). The JC-1 dye presents potential-dependent accumulation in mitochondria. At high membrane potentials (healthy cells) JC-1 dye accumulates as “J-aggregates” in the mitochondria and emits red fluorescence whereas at low membrane potentials (cells undergoing PCD-like responses) the dye is presented in monomeric form in the cytoplasm, emitting green fluorescence. […]

The next data set relates to N. fowleri trophozoites. Nature of the data set: Celltiter-Glo ATP level measurement. Type of data set: cell-based, Naegleria fowleri. How it is done: as §4
The ATP level measurement was performed with the Celltiter-Glo® Luminescent Cell Viability Assay (Promega Biotech Ibérica, Madrid, Spain). […]
Background: ATP-based viability assays read luminescence as a measure of living cells.

Where [7] appears, read: ATCC30215, trophozoite stage, 48 h, mean ± SD, triplicate.
Where [8] appears, read: ATCC30808, trophozoite stage, 48 h, mean ± SD, triplicate, N/A = no activity observed.

SMILES strings stand for the structures. Where two headings read alike, the source gives them in different places. Where only a bound is given, the exact number is not on record here.

By IC50 is commonly meant the concentration that inhibits the measured activity by half. In the case of `CCCCCCCCCCCCCCCCOP(=O)([O-])OCC[N+](C)(C)C` [Miltefosine, reference compound], the results for the IC50 with N. fowleri ATCC® 30215™ (setting [7]) and in the data set with N. fowleri ATCC® 30808™ (setting [8]) were 81.6 ± 7.23 µM and 38.7 ± 4.23 µM, respectively. For the same compound, the “N. fowleri ATCC® 30215™ SI (CC50/IC50)” value with N. fowleri ATCC® 30215™ is 1.57. Moreover, the “N. fowleri ATCC® 30808™ SI (CC50/IC50)” value in the data set on N. fowleri ATCC® 30808™ turned out to be 3.30.
The term CC50 denotes the concentration at which the toxic effect on the cells reaches its halfway point. `C=C(CCC(=O)C1(C)CCC(C(C)(C)O)O1)C1CCC2OC(C3(C)CCC(Br)C(C)(C)O3)CCC2(C)O1` (stereo not shown) [18-KetoDT (6), 18-ketodehydrothyrsiferol]: the concentration for half-maximal inhibition (IC50) in the data set on N. fowleri ATCC® 30215™ (setting [7]) is 12.7 ± 2.64 µM; in the data set on N. fowleri ATCC® 30808™ (setting [8]), 15.3 ± 2.82 µM. Also, in the data set on N. fowleri ATCC® 30215™, the “N. fowleri ATCC® 30215™ SI (CC50/IC50)” value was found to be 3.17. Also, in the data set with N. fowleri ATCC® 30808™, the “N. fowleri ATCC® 30808™ SI (CC50/IC50)” value turned out to be 2.61. Besides, in data set [1], the cytotoxic concentration (CC50) at 24 h was 40 ± 1.06 µM.
In the case of `C[C@@H]1[C@H](O)[C@@H](C)/C=C/C=C/C=C/C=C/C=C/C=C/C=C/[C@H](O[C@@H]2O[C@H](C)[C@@H](O)[C@H](N)[C@@H]2O)C[C@@H]2O[C@](O)(C[C@@H](O)C[C@@H](O)[C@H](O)CC[C@@H](O)C[C@@H](O)CC(=O)O[C@H]1C)C[C@H](O)[C@H]2C(=O)O` [Amphotericin B, reference compound], the IC50 in the data set on N. fowleri ATCC® 30215™ (setting [7]) came out at 0.16 ± 0.02 µM; with N. fowleri ATCC® 30808™ (setting [8]) it was 0.12 ± 0.03 µM. In addition, the “N. fowleri ATCC® 30215™ SI (CC50/IC50)” value with N. fowleri ATCC® 30215™ is greater than 1204.82. Also, the “N. fowleri ATCC® 30808™ SI (CC50/IC50)” value with N. fowleri ATCC® 30808™ was greater than 1652.89. In addition, the CC50 at 24 h in [1] (J774A.1 murine macrophage cell line (ATCC TIB-67)) was greater than 200 µM.
With `CC(CCC(=O)C1(C)CCC(C(C)(C)O)O1)C1CCC2OC(C3(C)CCC(Br)C(C)(C)O3)CCC2(C)O1` (stereo not shown) [Yucatecone (4), yucatecone], the 50% inhibitory concentration (IC50) with N. fowleri ATCC® 30215™ (ATCC30215, 48 h) was determined as 16.2 ± 1.23 µM; with N. fowleri ATCC® 30808™ (ATCC30808, 48 h), 28.5 ± 5.04 µM; in data set [2] it was 9.43 ± 1.48 µM. Moreover, the “N. fowleri ATCC® 30215™ SI (CC50/IC50)” value with N. fowleri ATCC® 30215™ is greater than 5.23. Also, the “N. fowleri ATCC® 30808™ SI (CC50/IC50)” value in the data set on N. fowleri ATCC® 30808™ and in the data set on N. fowleri ATCC® 30808™ (listed as Yucatecone) was greater than 2.98 each time. Also, the CC50 at 24 h in data set [1] is greater than 85 µM. Besides, in data set [3], the “chromatin condensation (Hoechst 33342)” value is listed as “induces chromatin condensation”. Besides, the propidium iodide staining result in [3] is “no fluorescence is shown”. In addition, the “plasma membrane permeability (SYTOX Green)” value in [4] is given as “caused plasma membrane permeabilty damage”. Moreover, the “intracellular ROS level (CellROX Deep Red)” value in data set [5] was “increased the intracellular ROS level production”. In data set [6], the “mitochondrial membrane potential (JC-1)” value is given as “induces the depolarization of the mitochondrial membrane potential”. Moreover, the “decrease of ATP production” value with N. fowleri trophozoites (treated with the IC50, compared to negative control) is given as 54.80%; in the data set on N. fowleri trophozoites (treated with the IC90, compared to negative control), 90.44%.
